Experimental data as given in patent publication US12171229B2, “Heteroaryl-triazole and heteroaryl-tetrazole compounds as pesticides” (BAYER AKTIENGESELLSCHAFT, priority 2018, dated 2024).

Assays:
Type in all cases: in vivo
[1] = tested on: Rhipicephalus sanguineus; test: Rhipicephalus sanguineus in-vitro contact test, adult brown dog ticks; details: 5 μg/cm^2 (=500 g/ha), after 48 hours, read-out: efficacy (ticks dead or moribund)
Method: Rhipicephalus Sanguineus—In-Vitro Contact Tests with Adult Brown Doe Ticks
9 mg compound is solved in 1 ml acetone and diluted with acetone to the desired concentration. 250 μl of the test solution is filled in 25 ml glass test tubes and homogeneously distributed on the inner walls by rotation and tilting on a shaking device (2 h at 30 rpm). With a compound concentration of 900 ppm, an inner surface of 44.7 cm^2 and a homogeneous distribution, a dose of 5 μg/cm^2 is achieved.
After the solvent has evaporated, each test tube is filled with 5-10 adult brown dog ticks (Rhipicephalus sanguineus), closed with a perforated lid and incubated in a lying position at room temperature and relative humidity. After 48 hours efficacy is determined. The ticks are patted on the ground of the tubes and are incubated on a heating plate at 45-50° C. for at most 5 minutes. Immotile or uncoordinated moving ticks, which are not able to escape the heat by climbing upwards, are marked as dead or moribund.
An efficacy of 100% means all ticks are dead or moribund; 0% means no ticks are dead or moribund.

[2] = tested on: Ctenocephalides felis; test: Ctenocephalides felis oral test; details: 48 h, 100 ppm in cattle blood, after 2 days, adult unfed cat fleas
Method in brief: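 About 20 unfed adult cat fleas feed through parafilm on cattle blood dosed with compound from a DMSO stock. Blood chamber at 37° C, fleas at room temperature. Percent mortality scored after 2 days.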

[3] = tested on: Myzus persicae; test: Myzus persicae spray test; details: foliar, 120 h, after 5 days, Chinese cabbage leaf disks
Method in brief: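 Chinese cabbage leaf disks infested with all aphid instars were sprayed with compound diluted in water containing emulsifier (1000 ppm). Mortality (%) was scored after 5 days, 100% meaning all aphids killed.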

[4] = tested on: Spodoptera frugiperda; test: Spodoptera frugiperda spray test; details: 168 h, after 7 days, larvae on maize leaf sections
Method in brief: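 Compound mixed with solvent, diluted with 1000 ppm emulsifier water to test concentrations; sprayed on maize leaf pieces; dried; larvae added; mortality (%) scored at 7 d.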

[5] = tested on: Culex quinquefasciatus strain P00; test: Culex quinquefasciatus test (CULXFA surface treatment & contact assay); details: 24 hours after contact, read-out: efficacy (mortality); for mortality at 4 mg/m2: surface concentration 4 mg/m^2, exposure 30 minutes; for mortality at 20 mg/m2: surface concentration 20 mg/m^2, exposure 30 minutes
Method in brief: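 Compound dissolved in acetone (2 mg/ml) with 2000 ppm rapeseed oil methyl ester, applied to glazed tile and dried; adult C. quinquefasciatus strain P00 exposed to surface for 30 minutes. Mortality (%) scored 24 hours after contact.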

[6] = tested on: cattle ticks (Boophilus microplus) strane Parhurst, SP-resistant; test: Boophilus microplus dip test; details: Rhipicephalus microplus, 168 h, engorged adult female cattle ticks, egg deposition after 7 days, read-out: efficacy (infertile eggs)
Method: Boophilus microplus—Dip Test
Test animal: cattle ticks (Boophilus microplus) strane Parhurst, SP-resistant
Solvent: dimethyl sulfoxide
To produce a suitable preparation of active compound, 10 mg of active compound are dissolved in 0.5 ml solvent, and the concentrate is diluted with water to the desired concentration.
This compound solution is pipetted into tubes. 8-10 engorged, adult, female cattle ticks (Boophilus microplus) are placed in perforated tubes. These tubes are immersed in the aqueous compound solution until the ticks are completely moistened. After the liquid has drained off, the ticks are transferred to a filter paper in a plastic tray and stored in a climate chamber.
After 7 days egg deposition of fertile eggs is monitored. Eggs where fertility is not visible are stored in a climate chamber till hatching after about 42 days. An efficacy of 100% means all eggs are infertile; 0% means all eggs are fertile.

[7] = tested on: Meloidogyne incognita; test: Meloidogyne incognita test; details: 20 ppm; after 14 days; salad seedlings
Method: Meloidogyne incognita—Test Solvent: 125.0 parts by weight of acetone To produce a suitable preparation of active compound, 1 part by weight of active compound is mixed with the stated amount of solvent, and the concentrate is diluted with water to the desired concentration. Vessels are filled with sand, a solution of the active ingredient, a suspension containing eggs and larvae of the southern root-knot nematode (Meloidogyne incognita) and salad seeds. The salad seeds germinate and the seedlings grow. Galls develop in the roots. After 14 days the nematicidal activity is determined on the basis of the percentage of gall formation. 100% means no galls were found and 0% means the number of galls found on the roots of the treated plants was equal to that in untreated control plants.

[8] = tested on: Tetranychus urticae; test: Tetranychus urticae spray test (OP-resistant); details: foliar, 144 h, after 6 days, French bean leaf disks
Method: Tetranychus urticae—Spray Test (OP-Resistant)
(§1) To produce a suitable preparation of active compound, 1 part by weight of active compound is mixed with the stated amount of solvents and is diluted with water, containing an emulsifier concentration of 1000 ppm, to the desired concentration. Further test concentrations are prepared by dilution with emulsifier containing water.
French bean (Phaseolus vulgaris) leaf disks infected with all instars of the two spotted spidermite (Tetranychus urticae), are sprayed with a preparation of the active ingredient of the desired concentration.
After 6 days mortality in % is determined. 100% means all spider mites have been killed and 0% means none of the spider mites have been killed.

[9] = tested on: Nilaparvata lugens; test: Nilaparvata lugens spray test; details: 336 h, after 14 days, rice plants
Method: Nilaparvata lugens—Spray Test
as §1
Rice plants (Oryza sativa) are sprayed with a preparation of the active ingredient of the desired concentration and the plants are infested with the brown planthopper (Nilaparvata lugens).
After 14 days mortality in % is determined. 100% means all planthoppers have been killed and 0% means none of the planthoppers have been killed.

Row | Structure (SMILES) | pest or weed control at 5 µg/cm2 [1] | mortality at 100 ppm [2] | mortality at 100 g/ha [3] | mortality at 500 g/ha [3] | mortality at 100 g/ha [4] | mortality at 500 g/ha [4] | mortality at 4 mg/m2 [5] | mortality at 20 mg/m2 [5] | pest or weed control at 100 ppm [6] | nematicidal activity (gall formation) [7] | mortality at 500 g/ha [8] | mortality at 500 g/ha [9]
1 | Cc1nc([C@H](C)NC(=O)c2cc(C(F)(F)F)cc(C(F)(F)F)c2)n(-c2ccc(C#N)cn2)n1 [Example I-056] | 100% | 100% | 100% | 90% | 100% | 100% | 90 to 100% | 90 to 100% | – | – | – | –
2 | C[C@H](NC(=O)c1cc(Cl)cc(C(F)(F)F)c1)c1ncnn1-c1ncc(Cl)cc1F [Example I-013] | – | 100% | 90% | 100% | 100% | 100% | 90 to 100% | 90 to 100% | 100% | 90% | – | –
3 | C[C@H](NC(=O)c1cc(Cl)cc(SC(F)(F)F)c1)c1ncnn1-c1ccc(C#N)cn1 [Example I-042] | – | 100% | – | – | 100% | 100% | 90 to 100% | 90 to 100% | 80% | – | 90% | –
4 | C[C@H](NC(=O)c1cc(Cl)cc(OC(F)(F)F)c1)c1ncnn1-c1ccc(C#N)cn1 [Example I-041, 3-chloro-N-{(1S)-1-[1-(5-cyanopyridin-2-yl)-1H-1,2,4-triazol-5-yl]ethyl}-5-(trifluoromethoxy)benzamide] | – | 100% | – | – | 100% | 100% | 90 to 100% | 90 to 100% | 100% | – | – | 90%
5 | C[C@H](NC(=O)c1cc(Cl)cc(C(F)(F)F)c1)c1ncnn1-c1cc(C#N)ccn1 [Example I-015] | 100% | 100% | 100% | 100% | 100% | 100% | 90 to 100% | 90 to 100% | – | – | – | –
6 | C[C@H](NC(=O)c1cc(F)cc(C(F)(F)F)c1)c1ncnn1-c1ccc(C#N)cn1 [Example I-019] | – | 100% | – | – | 100% | 100% | 90 to 100% | 90 to 100% | 100% | – | – | –
7 | C[C@H](NC(=O)c1cc(C(F)(F)F)cc(C(F)(F)F)c1)c1ncnn1-c1ccc(C#N)cn1 [Example I-052] | 100% | 100% | – | 90% | 100% | 100% | 90 to 100% | 90 to 100% | – | – | – | –
8 | C[C@H](NC(=O)c1cc(Cl)cc(C(F)(F)F)c1)c1ncnn1-c1ccc(NC(=O)C2CC2)cn1 [Example I-034, 3-chloro-N-[(1S)-1-(1-{5-[(cyclopropylcarbonyl)amino]pyridin-2-yl}-1H-1,2,4-triazol-5-yl)ethyl]-5-(trifluoromethyl)benzamide] | – | 100% | 100% | 100% | 100% | 100% | 90 to 100% | 90 to 100% | – | – | – | 100%
9 | C[C@H](NC(=O)c1cc(Cl)cc(S(F)(F)(F)(F)F)c1)c1ncnn1-c1ccc(C#N)cn1 [Example I-048] | – | 100% | – | – | 100% | 100% | 90 to 100% | 90 to 100% | – | – | – | 100%
10 | C[C@H](NC(=O)c1cc(Cl)cc(C(F)(F)F)c1)c1ncnn1-c1ccc([N+](=O)[O-])cn1 [Example I-028] | – | 100% | – | – | 100% | 100% | 90 to 100% | 90 to 100% | 100% | – | – | –
11 | C[C@H](NC(=O)c1cc(F)cc(C#N)c1)c1ncnn1-c1ccc(C#N)cn1 [Example I-018] | – | 100% | – | – | 100% | 100% | 90 to 100% | 90 to 100% | – | – | – | –
12 | CC(c1ncnn1-c1ccc(C#N)cn1)N(CC1CC1)C(=O)c1cc(Cl)cc(C(F)(F)F)c1 (stereo not shown) [Example I-007] | – | 100% | – | – | 100% | 100% | 90 to 100% | 90 to 100% | 80% | – | – | –
13 | C[C@H](NC(=O)c1cc(Cl)cc(C(F)(F)F)c1)c1ncnn1-c1ccc(C#N)cn1 [Example I-009] | 100% | 100% | – | 90% | 100% | 100% | 90 to 100% | – | 100% | – | – | –
14 | Cc1nc([C@H](C)NC(=O)c2cc(Cl)cc(C(F)(F)F)c2)n(-c2ccc(C#N)cn2)n1 [Example I-049] | 100% | 100% | 100% | 90% | 100% | 100% | 90 to 100% | 90 to 100% | 100% | – | – | 100%
15 | C[C@H](NC(=O)c1cc(Cl)cc(Br)c1)c1ncnn1-c1ccc(C#N)cn1 [Example I-046] | – | 100% | – | – | 100% | 100% | 90 to 100% | 90 to 100% | 100% | – | – | –
16 | C[C@H](NC(=O)c1cc(Cl)cc(Cl)c1)c1ncnn1-c1ccc(C#N)cn1 [Example I-047] | – | 100% | – | – | 100% | 100% | 90 to 100% | 90 to 100% | 100% | – | – | –
